Assay results published in patent EP2177533A1, “Multiple N-methylated cyclic hexapeptides for treatment of neurogenic inflammation” (TU München, priority 2008, dated 2010).
Marks after values point to notes of the source that are not given here.

Legend:
[1] = test system: peripheral terminals of sensory nerves of the isolated rat trachea; experiment: Electrical field stimulation-induced CGRP release from sensory nerve terminals of the isolated rat trachea (RIA); details: 500 nM; for EFS-evoked increase in the outflow of CGRP: stimulated and post-stimulated fractions vs control; for CGRP release in % compared to the prestimulated fraction: total CGRP release in stimulated and poststimulated fractions together vs basal outflow, n=5, mean with spread
Protocol: (§1) • Figure 1 provides a graphical representation of the effect of some compounds of the present invention on electrical field stimulation (EFS; 40 V, 0.1 ms, 10 Hz for 120 s; 1200 pulses)-induced calcitonin gene-related (CGRP) release from sensory fibres of the isolated rat tracheae. Each column represents the mean±s.e.m. CGRP concentration measured in the incubation medium of the prestimulated, stimulated and poststimulated 8-minute fractions of n = 5 experiments (5 x 2 tracheae/group). Analogs were added to the incubation medium (500 nM) at the beginning of the second and third fractions. *P<0.05, **P<0.01, vs. respective fraction of the control experiment (Mann-Whitney U-test). • Figure 2 provides a graphical representation of the effect of small peptide somatostatin analogs on 1% mustard oil-induced acute neurogenic plasma protein extravasation in the dorsal skin of the rat paw. Each column represents the mean±s.e.m. Evans blue accumulation per g wet skin of n = 6-10 experiments. Analogs were injected i.p. (100 µg/kg) 10 min before the induction of the inflammation. *P<0.05 vs. solvent-treated control experiment (Mann-Whitney U-test).
The activities of the above described synthetic somatostatin analogs were determined by means of an in vitro pharmacological assay on the release of the sensory neuropeptide CGRP from the peripheral terminals of sensory nerves of the isolated rat trachea. This experimental model was established more than 10 years ago (Helyes et al. (1997) Br. J. Pharmacol. 121, 613-615; Szolcsányi et al. (1998) Br. J. Pharmacol. 123, 936-942; Szolcsányi et al. (1998) Br. J. Pharmacol. 125, 916-922; Helyes et al. (2004) Arthr. Rheum., 50, 1677-1685; Bölcskei et al. (2005) Pain 117, 368-376; Helyes et al. (2007) Am. J. Physiol. Lung Cell. Mol. Physiol. 292, L1173-81; Nemeth et al. (1998) Eur. J. Pharmacol, 347, 101-104.) and it represents a reliable and sensitive technique for the investigation of drug effects at the level of peripheral nerve endings. Electrical field stimulation parameters are used to induce CGRP release that is selective for capsaicin-sensitive afferents. Since CGRP is an important mediator of neurogenic inflammation, the effectiveness of compounds in decreasing its electrically-evoked release in vitro may be seen as an indicator for effectiveness to inhibit neurogenic inflammatory reactions in vivo.
Experiments were performed on male Wistar rats bred and kept in the Laboratory Animal Centre of the University of Pécs under standard pathogen free conditions at 24-25 °C and provided with standard rat chow and water ad libitum. The method has been described in detail elsewhere (Helyes et al. (1997) Br. J. Pharmacol. 121, 613-615; Nemeth et al. (1998) Eur. J. Pharmacol. 347, 101-104.). In brief, rats were exsanguinated in deep anesthesia (sodium thiopental, 50 mg/kg i.p.), then the whole trachea was removed and cleaned of fat and adhering connective tissues. Tracheae from two rats were placed into the same organ bath (1.8 ml) to achieve sufficient amount of peptide release and perfused (1 ml/min) with pH- (7.2) controlled oxygenized Krebs solution for 60 min (equilibration period) at 37 °C temperature. After discontinuation of the flow, the solution was changed three times for eight minutes to produce prestimulated, stimulated, poststimulated fractions. In the second 8-min period electrical field stimulation (EFS; 40 V, 0.1 ms, 10 Hz for 120 s; 1200 pulses) was performed to elicit neurotransmitter release. Concentration of CGRP was determined from 200 µL samples of the incubation medium by a selective and specific radioimmunoassay (RIA) technique as described previously in detail (Nemeth et al., 1996; Helyes et al., 1997; Nemeth et al., 1998; Nemeth et al., 1999). Peptide outflow was expressed as the released amount per wet tissue weight. Detection limit of the assay was 0.2 fmol/tube. […]

[2] = test system: 1% mustard oil-induced neurogenic plasma protein extravasation in the rat paw skin; assay type: in vivo; details: 100 µg/kg i.p., 10 min before induction of inflammation; rat hindpaw dorsal skin
Protocol: as §1, with “Analogs were injected i.p. (100 µg/kg) 10 min before the induction of the inflammation. *P<0.05 vs. solvent-treated control experiment (Mann-Whitney U-test).” left out
To confirm the findings of this in vitro study, a further in vivo activity test was performed: Compounds of the invention were examined on 1% mustard oil-induced neurogenic plasma protein extravasation in the rat paw skin.
Both hindlegs of the rats were acutely denervated (the sciatic and the saphenous nerves were cut 30 min before the induction of inflammation) under sodium pentobarbitone (Nembutal, 40 mg/kg i.p.) anaesthesia to avoid central reflexes. Acute neurogenic inflammation in the dorsal skin of the hindpaws was evoked by topical application of 1 % mustard oil dissolved in paraffin oil. Extravasation of plasma albumin was measured by the Evans blue leakage method. Evans blue (50 mg/kg) was injected i.v. and neurogenic inflammation was induced 10 min later. Rats were killed by exsanguination 20 min after mustard oil application. […] The amount of the accumulated Evans blue, which quantitatively correlates with the intensity of plasma extravasation, was expressed as µg dye/g wet tissue (Helyes et al., 1997; Helyes et al., 2001). […]

[3] = cited from earlier work
[4] = cited from earlier work; remark: listed apart in the source
[5] = cited from earlier work; remark: listed apart in the source

| Compound | EFS-evoked increase in the outflow of CGRP [1] | CGRP release in % compared to the prestimulated fraction [1] | µg Evans blue/g wet tissue (mean±s.e.m.) [2] | bioavailability after oral administration [3] | stability in the blood and in the gastrointestinal tract [4] | CGRP outflow in the poststimulated fraction ([1]; poststimulated fraction) | inhibitory action on CGRP outflow in the stimulated period ([1]; stimulated fraction, EFS 1200 pulses) | half life in serum [5] [min] |
| --- | --- | --- | --- | --- | --- | --- | --- | --- |
| CC(C)[C@@H]1NC(=O)[C@H](CCCCN)N(C)C(=O)[C@@H](Cc2c[nH]c3ccccc23)N(C)C(=O)[C@H](Cc2ccc(O)cc2)NC(=O)[C@H](C)N(C)C(=O)[C@H](Cc2ccccc2)NC1=O [MK-678-2, cyclo(-MeAla-Tyr-D-MeTrp-MeLys-Val-Phe-)] | significantly inhibited | 153,12 ± 29,72* % | 119.92±32.7 µg Evans blue/g wet tissue |  |  |  |  |  |
| CC(C)[C@@H]1NC(=O)[C@H](CCCCN)N(C)C(=O)[C@@H](Cc2c[nH]c3ccccc23)NC(=O)[C@H](Cc2ccc(O)cc2)NC(=O)[C@H](C)N(C)C(=O)[C@H](Cc2ccccc2)NC1=O [MK-678-3, cyclo(-MeAla-Tyr-D-Trp-MeLys-Val-Phe-)] | significantly inhibited | 181,57 ± 54,17* % | 127.13±23.0 µg Evans blue/g wet tissue |  |  |  |  |  |
| CC(C)[C@@H]1NC(=O)[C@H](CCCCN)NC(=O)[C@@H](Cc2c[nH]c3ccccc23)NC(=O)[C@H](Cc2ccc(O)cc2)NC(=O)[C@H](C)N(C)C(=O)[C@H](Cc2ccccc2)NC1=O [MK-678-0, c(-MeAYwKVF-)] |  |  |  | 1-3% | quite stable |  |  |  |
| CC(C)[C@@H]1NC(=O)[C@H](CCCCN)N(C)C(=O)[C@@H](Cc2c[nH]c3ccccc23)N(C)C(=O)[C@H](Cc2ccc(O)cc2)NC(=O)[C@H](C)N(C)C(=O)[C@H](Cc2ccccc2)N(C)C1=O [MK-678-1, cyclo(-MeAla-Tyr-D-MeTrp-MeLys-Val-MePhe-)] | significantly inhibited | 99,58 ± 39,89** % | 90.06±10.4* µg Evans blue/g wet tissue |  |  | completely abolished | about 70% |  |
| Somatostatin |  |  |  |  |  |  |  | < 3 |
